Series [1] relates to LNCaP cells. Put plainly: LNCaP viability with anti-Fas mAb alone or combined with Lupeol, MTT assay. It is filed as cell-based, human. As for the experimental part:
FIG. 15 depicts effect of Lupeol treatment in combination with anti-Fas mAb on the growth of LNCaP cells and on the expression of Fas receptor in LNCaP and PrEC cells: (a) Cells were treated with specified concentrations anti-Fas mAb for 48 h and cell viability was determined by MTT assay. The values are represented as the percent viable cells where vehicle-treated cells were regarded as 100% viable. Data represents mean value of percent viable cells±S.E of three independent experiments. V represents control and vehicle (DMSO) treated cells respectively. (b). Cells were treated with specified concentrations of Lupeol alone, anti-Fas mAb or with combination (Lupeol+anti-Fas mAb) for 48 h and cell viability was determined by MTT assay. “a” and “b” represent pre-treatment and co-treatment of cells with anti-Fas mAb respectively. The values are represented as the percent viable cells where vehicle-treated cells were regarded as 100% viable. Data represents mean value of percent viable cells±S.E of three independent experiments.
(Tetrazolium dyes change colour on reduction, which living cells bring about.)

In series [2] the test system is LNCaP cells. As to the kind of experiment: Apoptosis in LNCaP cells by flow cytometry. Conditions: Lupeol 5-30 μM. It is filed as cell-based, human. As for the experimental part:
FIG. 11 depicts quantitative representation of Lupeol induced apoptosis in LNCaP cells as assessed by flow cytometry. Cells were treated with Lupeol (5-30 μM). Cells showing fluorescence above that of control population, as indicated by the line in each histogram, are considered as apoptotic cells. The images shown here are representative of independent experiments with similar results. The values shown inside each graph indicates percent apoptotic cells.
A general note: Flow cytometry measures light scatter and fluorescence of single cells or particles in a stream.

A further series relates to CD-1 mouse skin. Put plainly: TPA-induced cutaneous edema, skin punch weight. It is filed as in vivo. Conditions: for protection against TPA-induced skin edema: dose not stated, p<0.01. The protocol:
Studies from the inventors' laboratory and by other have shown that TPA application to mouse skin results in cutaneous edema (Katiyar et at, 1996; Liang et at, 2002). In the present study, the inventors evaluated the protective effects of topical application of Lupeol in TPA-mediated cutaneous edema in CD-1 mouse. The inventors tested four doses 0.25, 0.5, 1 and 2 mg of Lupeol per animal in the inventors' preliminary studies. […] The CD-1 mice were topically treated with Lupeol (1 and 2 mg/mouse) and 30 min later were topically treated with TPA (3.2 nmole/mouse). […] At least four determinations were made at different dorsal skin sites per mouse in each group. The data represents the mean±SE of eight mice (*p<0.01 vs TPA).
The animals were shaved on the dorsal side of the skin, divided into four groups and treated topically on the shaved area with either 0.4 ml vehicle (acetone), or TPA (3.2 nmol/0.4 ml acetone/animal, v/v), or Lupeol (1 or 2 mg/0.2 ml acetone/animal, w/v) followed 30 min later with TPA (3.2 nmol/0.2 ml acetone/animal). Animals were sacrificed at different times point i.e. 6, 12, 24 and 48 h post TPA treatment. The epidermis was separated from the whole skin and homogenized in 0.1 M Tris-HCl buffer (pH 7.2) using a Polytron tissue homogenizer (Brinkmann Instruments, Westbury, N.Y., USA) at 100,000×g supernatant, and microsomal fractions were prepared as described earlier (Katiyar and Mukhtar, 1997). The sample of 6 h treatment group was used to assess the ODC activity as this time point has previously been shown for optimal induction of the enzyme (Katiyar er al., 1996).
To assess the inhibitory effect of pre-application of Lupeol on TPA-induced edema, 1 cm-diameter punches of skin from vehicle-, Lupeol-, TPA- or Lupeol- and TPA-treated mice were removed, made free of fat pads, and weighed immediately. After drying for 24 h at 50° C., the skin punches were reweighed, and the loss of water content was determined. The difference in the amount of water gain between the control (vehicle treated) and TPA treated represented the extent of edema induced by TPA, whereas that between the control vehicle and Lupeol plus TPA represented the inhibitory effect of Lupeol. For the hyperplasia study, skin was removed, fixed in 10% formalin, and embedded in paraffin. Vertical sections (5 μm) were cut, mounted on a glass slide, and stained with hematoxylin and eosin.

In series [3] the test system is PARP, acinus, Bcl2, Bax, Caspase 7 in LNCaP cells. Put plainly: PARP cleavage and apoptosis protein expression in LNCaP cells (western blot). It is filed as cell-based, human. As for the experimental part:
FIG. 12 depicts effect of Lupeol treatment on PARP cleavage and on protein expression of acinus, in LNCaP cells. Cells were treated with specified concentrations of Lupeol for 48 h, harvested and total cell lysates were prepared. PARP cleavage and the expression of acinus, were determined by western blot analysis. Equal loading was confirmed by stripping immunoblots and reprobing them for β-actin. The immunoblots shown here are representative of three independent experiments with similar results.
For orientation: A western blot detects proteins with antibodies after separation by electrophoresis.

Setting [4] is: Lupeol alone (2 mg), topical, no TPA, mean±SE of eight mice.
Where [5] appears, read: TPA + Lupeol (1 mg), Lupeol topical 30 min before TPA.
[6] abbreviates: TPA + Lupeol (2 mg), Lupeol topical 30 min before TPA.

Entries after “also recorded” stand apart in the source; their conditions may differ. Marks after values point to notes of the source that are not given here.

Turning to `C=C(C)[C@@H]1CC[C@]2(C)CC[C@]3(C)[C@H](CC[C@@H]4[C@@]5(C)CC[C@H](O)C(C)(C)[C@@H]5CC[C@]43C)[C@@H]12` [Lupeol, Lup-20(29)-en-3β-ol], the “combination effect of Lupeol with Fas-agonist (anti-Fas mAb) on cell death” value in the series with LNCaP cells [1] (LNCaP cells, vs additive effect of the two alone) is “synergistic effect; also recorded: significant synergistic manner”. In addition, in the series with LNCaP cells [1] (anti-Fas mAb pretreated LNCaP cells treated with Lupeol (30 μg)), the “cell death of LNCaP cells” value is 95-98%. In the series with LNCaP cells [2], the “induction of apoptosis in LNCaP cells” value was “due to apoptosis; also recorded: inducing apoptosis”. The “protection against TPA-induced skin edema” value with CD-1 mouse skin (24 h post-treatment) is reported as 48%; in the series with CD-1 mouse skin (48 h post-treatment), 43%. In addition, the “Skin punch weight 24 hrs” value in the series on CD-1 mouse skin (setting [4]) is listed as 13.5 ± 1.5 mg/cm2; with CD-1 mouse skin (setting [5]), 18.5 ± 1.0* mg/cm2; in the series on CD-1 mouse skin (setting [6]), 16.0 ± 1.5* mg/cm2. Moreover, the “Skin punch weight 48 hrs” value with CD-1 mouse skin (setting [4]) is 15.5 ± 1.5 mg/cm2; with CD-1 mouse skin (setting [5]), 20.0 ± 1.0* mg/cm2; in the series with CD-1 mouse skin (setting [6]), 16.5 ± 0.75* mg/cm2. For the same compound, the “% protection 24 hrs” value in the series with CD-1 mouse skin (TPA + Lupeol (1 mg)) is listed as 53%; with CD-1 mouse skin (TPA + Lupeol (2 mg)), 79%. Also, the “% protection 48 hrs” value in the series on CD-1 mouse skin (TPA + Lupeol (1 mg)) is 52%; with CD-1 mouse skin (TPA + Lupeol (2 mg)) it was 85%. The “skin edema after Lupeol alone” value in the series on CD-1 mouse skin (topical Lupeol alone, 24 and 48 h post treatment) was “did not result in an increase in skin edema”. Further, the “Bcl2, Bax and Caspase 7 protein expression” value in series [3] was “no change”. For the same compound, the “cleavage of PARP and Acinus protein” value in series [3] (48 hours) was “induce the cleavage of PARP protein and degradation of Acinus protein; also recorded: induced cleavage of PARP and Acinus protein”.

The values above are taken from patent US8618082B2, “Lupeol anti-tumor agent and uses thereof” (Wisconsin Alumni Research Foundation, priority 2004, dated 2013).
